The values that follow come from patent US9987242B2, “Treatment of Levodopa-induced Dyskinesias” (NORTHWESTERN UNIVERSITY, priority 2015, dated 2018).

“Also recorded” adds a separate entry of the source.

In experiment [1] the test system is dSPN glutamatergic synapses. Put plainly: Spike-timing-dependent LTD induction (post-pre pairing) in dSPNs, ex vivo corticostriatal slices, perforated-patch or whole-cell recording. The format is cell-based, mice. An excerpt:
Male C57Bl/6 and FVB mice expressing tdTomato or eGFP under control of either the Drd1 or Drd2 receptor regulatory elements were used. All the mice used for the study were hemizygous for these transgenes. For some experiments, D1-tdTomato BAC mice were crossed with a transgenic line expressing Cre recombinase under control of the ChAT promoter. All mice were 8-10 weeks of age before stereotaxic surgery. Animal use procedures were reviewed and approved by the Northwestern Institutional Animal Care and Use Committee.
Slices were then transferred to a holding chamber containing aCSF. After an incubation period at 34° C. for 30 min, the slices were then kept in the holding chamber at the room temperature for another 30 min before use.
Individual slices were transferred to a recording chamber and were continuously perfused (2-3 ml min^−1) with aCSF for the duration of the experiment. Experiments were performed in the dorsolateral striatum at elevated temperature (30-31° C.).
All the recordings were made using a MultiClamp 700 A amplifier, and signals were filtered at 2 kHz and digitized at 10 kHz. Data were excluded when the series resistance changed >20% over the time course of the experiment. […] Capacitance current was continuously monitored during perforation by applying a 5-10 mV pulse from a holding potential of −70 mV. The amplifier bridge circuit was adjusted to compensate for series resistance and continuously monitored during recordings. Electrode capacitance was also compensated. Data were excluded when the input resistance (Ri) changed >20% over the time course of the experiment.
Data analysis was conducted with Igor Pro 6 (Wavemetrics, Lake Oswego, Oreg.) and Clampfit 9 (Molecular Devices). EPSP amplitude was calculated from 50-60 sweeps immediately before the start of induction and 20-30 min after the end of induction. The change in EPSP amplitude was calculated by averaging EPSP values after the induction and normalized to the average baseline EPSP amplitude. Compiled data were expressed as mean±s.e.m. Statistical tests were performed using Excel (Microsoft, Redmond, Wash.) and SigmaStat (Systat, San Jose, Calif.). Non-parametric Mann-Whitney or Wilcoxon tests were used to assess the experiment results, using a probability threshold of 0.05.
To determine if M4Rs were modulating synaptic plasticity, a spike-timing-dependent plasticity (STDP) paradigm was used. […] Once identified, neurons were monitored and controlled with perforated-patch recording to preserve intracellular signaling mechanisms and to allow stable, long-term monitoring of synaptic strength (FIG. 1A).
Synaptic plasticity was induced by pairing local stimulation of glutamatergic afferent fibers with postsynaptic spikes evoked by short bursts of intracellular current injection that were repeated at 5 Hz (FIGS. 1B, 4A).

In experiment [2] the test system is ChIs expressing DREADD hM3D(q). Put plainly: Discharge rate of DREADD hM3D(q)-expressing cholinergic interneurons, cell-attached patches in slices. In kind it is cell-based, mice. An excerpt:
To determine the importance of endogenous cholinergic signaling in regulating synaptic plasticity, the discharge rate of ChIs was elevated using a Cre-dependent DREADD (Alexander et al., 2009; Armbruster et al., 2007; Ferguson et al., 2011; Kozorovitskiy et al., 2012; herein incorporated by reference in their entireties). Briefly, bi-transgenic mice expressing tdTomato in dSPNs and Cre-recombinase under control of the choline acetyltransferase (ChAT) promoter received striatal stereotaxic injections of an adeno-associated virus (AAV; serotype 2/8) containing the hM3D(q) expression construct (the University of North Carolina Vector Core). Mice were allowed to recover for 5-6 weeks before recordings. To activate the DREADD expressing ChIs, clozapine-N-oxide (CNO) was bath applied to ex vivo brain slice preparations.
To address the possibility that in an ex vivo slice preparation at 30-31° C., spontaneous ChI activity is low and could lead to effective enzymatic degradation of ACh near its release site and weak M4R activation, the ACh esterase inhibitor physostigmine (10 μM) was co-applied with the M4R PAM. […] Another way to compensate for lower than normal cholinergic signaling in ex vivo slices is to use designer receptors exclusively activated by designer drugs (DREADDs) to selectively increase ChI discharge rate (Alexander et al., 2009; Armbruster et al., 2007; herein incorporated by reference in their entireties). To this end, bi-transgenic mice expressing tdTomato in dSPNs and Cre-recombinase under control of the choline acetyltransferase (ChAT) promoter received striatal injections of an adeno-associated virus (AAV) containing an hM3D(q) expression construct having an upstream foxed STOP codon; this STOP codon is effectively excised by Cre-recombinase leading to DREADD expression (Ferguson et al., 2011; Kozorovitskiy et al., 2012; herein incorporated by reference in their entireties) (FIG. 2A). […]

In the next experiment the test system is iSPN synapses. Put plainly: Pre-post pairing protocol in iSPNs from 6-OHDA lesioned, L-DOPA treated mice. The following applies: 6-OHDA lesioned mice shortly after L-DOPA treatment.
The subject of experiment [3] is dSPN glutamatergic synapses. Put plainly: Spike-timing-dependent LTP induction (pre-post pairing) in dSPNs, ex vivo slices. The format is cell-based, mice.
A further experiment concerns forelimb use asymmetry. Put plainly: Forelimb-use asymmetry test (cylinder test) in 6-OHDA lesioned mice. The format is in vivo. To be noted: for forelimb use asymmetry: n=9. As to the method:
(§1) After LID induction, mice were treated with either L-DOPA or L-DOPA and VU152100 (20-120 mg/kg, i.p.) on days 6-8; VU152100 is an M4R PAM with improved pharmacokinetic properties than VU10010.

The subject of another experiment is L-DOPA-induced AIMs. Put plainly: Abnormal involuntary movement (AIM) scoring in unilateral 6-OHDA lesioned mice with L-DOPA-induced dyskinesia. The format is in vivo. As to the method:
as §1

For experiment [4], the system named is phosphorylated ERK1/2 and phosphorylated histone 3. Put plainly: Cells immunoreactive for pERK1/2 and pH3 in the dorsolateral striatum of LID mice. The format is in vivo. As to the method: as §1
Experiment [5] has as its system NMDAR-mediated currents in dSPNs. Put plainly: NMDAR-mediated uEPSCs and EPSCs in dSPNs, whole-cell voltage clamp. The format is cell-based, mice. The following applies: muscarine 3 μM; local electrical stimulation. As to the method:
For whole-cell voltage clamp recordings, patch pipettes were loaded with internal recording solution containing (mM): 120 CsMeSO3, 15 CsCl, 8 NaCl, 10 HEPES, 0.2 EGTA, 10 tetraethylammonium Chloride (TEA-Cl), 5 QX-314, 2 Mg-ATP, 0.3 Na-GTP; pH was adjusted to 7.25 with CsOH and osmolarity to ˜305 mOsm l^−1. All the recordings were made using a MultiClamp 700 A amplifier, and signals were filtered at 2 kHz and digitized at 10 kHz. Data were excluded when the series resistance changed >20% over the time course of the experiment. For perforated patch recordings, the internal recording solution comprised (in mM): 125 KMeSO4, 14 KCl, 2 MgCl2, 0.2 EGTA, 10 HEPES; pH was adjusted to 7.25 with NaOH and osmolarity to ˜280 mOsm l^−1. Amphotericin B was used to achieve electrical access through the perforated-patch method (Shen et al., 2007; 2008; herein incorporated by reference in their entireties). Capacitance current was continuously monitored during perforation by applying a 5-10 mV pulse from a holding potential of −70 mV. The amplifier bridge circuit was adjusted to compensate for series resistance and continuously monitored during recordings. Electrode capacitance was also compensated. Data were excluded when the input resistance (Ri) changed >20% over the time course of the experiment.
Glutamate uncaging was achieved using a Verdi/Mira (Coherent Laser Group, Santa Clara, Calif.) (Plotkin et al., 2014). 5 mM MNI-glutamate was superfused over the slice at 0.4 ml/hr using a syring pump and multi-barreled perfusion manifold (Cell MicroControls, Norfolk, Va.). The perfusion solution was (in mM): 124 NaCl, 3 KCl, 2 CaCl2, 1 NaH2PO4, 26 HEPES and 16.66 glucose, and also contained (in μM): 3 muscarine, 10 serine, 10 NBQX and 10 gabazine, plus or minus: 3 SKF81297 and/or 5 VU10010). Glutamate was uncaged adjacent to individual spines using 1 ms pulses of 720-725 nm light typically 10-20 mW in power at the sample plane. Photolysis power was tuned via a third Pockels cell modulator (Con Optics, Danbury, Conn.) to achieve uEPSCs≤5 pA. uEPSC amplitudes were measured from averaged (3-5 repetitions) traces. All uncaging experiments were performed in 0 mM Mg^2+-containing solutions.
To determine the situation in dSPNs, the effect of muscarine and VU10010 on NMDAR-mediated EPSCs evoked by uncaging glutamate on spine heads (uEPSCs) was examined in the presence of SKF81297.

Where [6] appears, read: VU152100 co-administered with L-DOPA vs L-DOPA.

For `Cc1c(C(=O)NN2CCCCC2)nn(-c2ccc(Cl)cc2Cl)c1-c1ccc(I)cc1` [AM251], the “LTD induction in dSPNs” value in experiment [1] (AM251 2 μM with CNO) is on record as “dependent upon endocannabinoid (eCB) CB 1 receptors; also recorded: LTD was blunted”.

For `N[C@@H](CCCP(=O)(O)O)C(=O)O` [APV], in experiment [1] (APV 50 μM with VU10010 5 μM), the “LTD induction in dSPNs” value is on record as “LTD was inducible”.

With `CCCCn1c(=O)sn(CC)c1=O` [CCG203769], the “LTD induction in dSPNs” value in experiment [1] (CCG203769 10 μM intracellular, without VU10010) was “enhanced induction of LTD; also recorded: promoted the induction of LTD”; in experiment [1] (CCG203769 with VU+PHY+MT3 (M4R antagonized)), “antagonizing M4Rs had no effect on dSPN LTD”; in experiment [1] (CCG203769 with VU+PHY+MT3 (M4R antagonized), listed as CCG) it was “enhanced LTD induction”.

Take `C[N+]1([O-])CCN(C2=Nc3cc(Cl)ccc3Nc3ccccc32)CC1` [CNO, clozapine-N-oxide]: the “LTD induction in adjacent dSPNs” value in experiment [1] (CNO 10 μM, elevated ChI activity via DREADD hM3D(q)) was “led to a robust LTD”. For the same compound, in experiment [2] (CNO 10 μM bath perfusion, n=5), the “ChI discharge rate, median” value worked out at 6.7 Hz and the “ChI discharge rate, range” value is 4.2-7.8 Hz. The “ChI spontaneous discharge rate (in words)” value in experiment [2] (CNO 10 μM, cell-attached patches) is on record as “increased ChI spontaneous discharge rate”.

Turning to `N[C@@H](Cc1ccc(O)c(O)c1)C(=O)O` [L-DOPA, L-3,4-dihydroxyphenylalanine], the “plasticity in iSPNs with pre-post pairing protocol” value with iSPN synapses is “induced an LTD”. Further, the “STDP LTP induction in dSPNs” value in experiment [3] (6-OHDA lesioned mice, slices one hour after last L-DOPA injection) is reported as “led to a robust LTP; also recorded: LTP was recovered”. This compound registered a forelimb use asymmetry with forelimb use asymmetry (L-DOPA alone) of 47.98±2.41.

Turning to `Cc1cccc(C#Cc2ccccc2)n1` [MPEP], the “LTD induction in dSPNs” value in experiment [1] (MPEP 10 μM with CCG203769) was “prevented the LTD induction; also recorded: LTD was disrupted”.

With `N#CC(=C(/N)Sc1ccccc1N)/C(C#N)=C(\N)Sc1ccccc1N` [U0126], the “STDP LTP induction in dSPNs” value is reported as “prevented LTP induction; also recorded: LTP was disrupted” in experiment [3] (U0126 10 μM, dyskinetic (LID) mice) and “disrupted STDP LTP; also recorded: LTP induction was disrupted” in experiment [3] (U0126 10 μM, naive mice).

For `COc1ccc(CNC(=O)c2sc3nc(C)cc(C)c3c2N)cc1` [VU152100], the “cumulative AIM scores” value in the experiment with L-DOPA-induced AIMs (VU152100 60 mg/kg systemic, with L-DOPA) was “significantly reduced cumulative AIM scores”. Moreover, the “anti-dyskinetic effect on doubling the dose” value in the experiment on L-DOPA-induced AIMs (VU152100 120 mg/kg, with L-DOPA) was “did not increase the anti-dyskinetic effect”. In addition, in the experiment with L-DOPA-induced AIMs (VU152100 20, 60, 120 mg/kg), the “AIM scores, dose relation” value is “dose-dependent effect”. Also, the “L-DOPA-induced AIM scores” value in the experiment on L-DOPA-induced AIMs (VU152100 20-120 mg/kg i.p. with L-DOPA, days 6-8) was “significantly attenuated”. Moreover, in experiment [4] (VU0152100 60 mg kg-1), the “level of phosphorylated ERK (pERK)” value was “reduced the levels of LID biomarkers” and the “level of phosphorylated histone3 (pH3)” value is recorded as “reduced the levels of LID biomarkers”. Besides, in experiment [4] (setting [6]), the “number of cells immunoreactive for phosphorylated ERK1/2 (pERK1/2)” value is “reduced the number of cells; also recorded: reduced expression” and the “number of cells immunoreactive for phosphorylated histone 3 (pH3)” value was “reduced the number of cells; also recorded: reduced expression”. In the experiment on forelimb use asymmetry (L-DOPA+VU152100, p>0.05 vs L-DOPA), this compound gave a forelimb use asymmetry of 38.6±3.04. Further, the “effect on anti-parkinsonian action of L-DOPA (forelimb use asymmetry)” value in the experiment on forelimb use asymmetry (VU152100 co-administered with L-DOPA) is “did not occur at the expense of the anti-parkinsonian action of L-DOPA”.

As to `C[C@@H]1O[C@H](C[N+](C)(C)C)C[C@H]1O` [muscarine], in experiment [5], the “amplitudes of NMDAR-mediated EPSCs” value is on record as “reduced the amplitudes”.

As for `CCN1CCCC1CNC(=O)c1cc(S(N)(=O)=O)ccc1OC` (stereo not drawn) [sulpiride], in experiment [1] (sulpiride 10 μM with physostigmine 10 μM and VU10010 5 μM), the “LTD induction in dSPNs” value was “LTD was induced”.
